Assay results: patent publication US9725477B2, “Platinum compounds of malonic acid derivative having leaving group containing amino or alkylamino” (BEIJING FSWELCOME TECHNOLOGY DEVELOPMENT CO., LTD, priority 2012, dated 2017)
Read-outs that look alike come from different tables or passages of the source.

Assays:
normal mice = assay: in vivo; settings: method of test example 1; for LD50: Table 1, formula I compounds; for LD50 vALUE: Table 2, formula II compounds
Protocol: Kunming mice with 4˜6 weeks old and 18 g˜22 g by weight were taken, 50% males and 50% females. […] The condition of mortality and toxicity were observed after administration. Totally observing for 14 days, LD50 value was calculated using Bliss method according to the mortality.

Lung cancer A549 = assay: MTT cytotoxicity, lung cancer A549; settings: read-out: IC50 of anti-lung cancer A549, method of test example 2
Protocol: Cell morphologies were observed after being cultivated for 24 hours.

Lung cancer H292 = assay: MTT cytotoxicity, lung cancer H292; format: cell-based; settings: Lung cancer H292, MTT, n = 6; read-out: cytotoxicity IC50
Testis cell ST = assay: MTT cytotoxicity, testis cell ST; format: cell-based; settings: n = 6
gastric cancer MGC803 = assay: MTT cytotoxicity, gastric cancer MGC803; format: cell-based; settings: n = 6
Esophagus cancer ECA109 = assay: MTT cytotoxicity, esophagus cancer ECA109; format: cell-based; settings: n = 6
Solubility in water = settings: compound of the example (salt form) in water
colon cancer SW480 = assay: MTT cytotoxicity, colon cancer SW480; format: cell-based; settings: colon cancer SW480, MTT, n = 6; read-out: cytotoxicity IC50

CN(CO)CCCCC1C(=O)[O][Pt]([NH2])([NH]C2CCC2)[O]C1=O (stereo not drawn) [Compound 52]
LD50 (normal mice): 0.687 mmol/kg | IC50 (Lung cancer A549; Table 1, formula I compounds): 41 µM

CC[N+](CC)(CC)CCCCC1C(=O)[O][Pt]([NH2])([NH2])[O]C1=O [Compound 66]
LD50 vALUE (normal mice): 0.677 mmol/kg | IC50 (Lung cancer A549; Table 2, formula II compounds): 20 µM

CN(C)CCCCC1C(=O)[O][Pt][O]C1=O.NCC1CCCN1 [Compound 48]
LD50 (normal mice): 0.831 mmol/kg | IC50 (Lung cancer A549; Table 1, formula I compounds): 31 µM

2-(4-diethylaminobutyl)-malonate•cis-(2-aminomethyl-cyclopentylamine) platinum (II) acetate [Compound 27]
IC50 (Lung cancer H292): 4 µM | IC50 (Testis cell ST): 13 µM | IC50 (gastric cancer MGC803): 5 µM | IC50 (Esophagus cancer ECA109): 54 µM

CC1CCN(CCCCC2C(=O)[O][Pt]3([NH]C4CC=CCC4[NH]3)[O]C2=O)C1 (stereo not drawn) [Compound 33]
LD50 (normal mice): 0.826 mmol/kg | IC50 (Lung cancer A549; Table 1, formula I compounds): 7 µM

CN(C)CCCCC1C(=O)[O][Pt][O]C1=O.NCC1CN1 [Compound 46]
LD50 (normal mice): 0.823 mmol/kg | IC50 (Lung cancer A549; Table 1, formula I compounds): 27 µM

CCN(CC)CCCCC1C(=O)[O][Pt][O]C1=O.NC1CCC(N)CC1.O=P(O)(O)O [Compound 23, 2-(4-diethylaminobutyl)-malonate•cis-1,4-cyclohexanediamine platinum (II) phosphate]
IC50 (Lung cancer H292): 14 µM | IC50 (Testis cell ST): 8 µM | IC50 (gastric cancer MGC803): 5 µM | IC50 (Esophagus cancer ECA109): 66 µM | solubility (Solubility in water): more than 300 mg/ml

2-(4-diethylaminobutyl)-malonate•cis-dicyclopentylamine platinum (II) acetate [Compound 25]
IC50 (Lung cancer H292): 6 µM | IC50 (Testis cell ST): 7 µM | IC50 (gastric cancer MGC803): 3 µM | IC50 (Esophagus cancer ECA109): 29 µM

CCN(CC)CCCCC1C(=O)[O][Pt]2([NH]CC(CO)(CO)C[NH]2)[O]C1=O.O=P(O)(O)O [Compound 21, 2-(4-diethylaminobutyl)-malonate•cis-1,3-(2,2-hydroxymethyl)-propanediamine platinum (II) phosphate]
IC50 (Lung cancer H292): 12 µM | IC50 (Testis cell ST): 13 µM | IC50 (gastric cancer MGC803): 5 µM | solubility (Solubility in water): more than 300 mg/ml

O=C1[O][Pt]([NH]C2CCCC2)([NH]C2CCCC2)[O]C(=O)C1CCCCN(C1CC1)C1CC1 [Compound 56]
LD50 (normal mice): 0.816 mmol/kg | IC50 (Lung cancer A549; Table 1, formula I compounds): 57 µM

2-(4-diethylaminobutyl)-malonate•cis-ammonia•cyclopentylamine platinum (II) acetate [Compound 26]
IC50 (Lung cancer H292): 4 µM | IC50 (Testis cell ST): 11 µM | IC50 (gastric cancer MGC803): 1 µM | IC50 (Esophagus cancer ECA109): 91 µM

CN(C)CCCCC1C(=O)[O][Pt][O]C1=O.NC1CCC(N)C1 [Compound 44]
LD50 (normal mice): 0.857 mmol/kg | IC50 (Lung cancer A549; Table 1, formula I compounds): 24 µM

C[N+](C)(C)CCCCC1C(=O)[O][Pt][O]C1=O.Cc1ccc(S(=O)(=O)[O-])cc1.N[C@@H]1CCCC[C@H]1N [Compound 29, 2-(4-trimethylaminobutyl)-malonate•cis-(1,2-trans-cyclohexanediamine) platinum(II) tosilate]
IC50 (Lung cancer H292): 7 µM | IC50 (Testis cell ST): 8 µM | IC50 (gastric cancer MGC803): 2 µM | IC50 (Esophagus cancer ECA109): 25 µM

CCN(CC)CCCCC1C(=O)[O][Pt]2([NH]CC3(CCOCC3)C[NH]2)[O]C1=O.O=P(O)(O)O [Compound 24, 2-(4-diethylaminobutyl)-malonate•cis-1,3-(2,2-(4-oxacyclohexyl))-propanediamine•platinum (II) phosphate]
IC50 (Lung cancer H292): 3 µM | IC50 (Testis cell ST): 6 µM | IC50 (gastric cancer MGC803): 3 µM | IC50 (Esophagus cancer ECA109): 52 µM | solubility (Solubility in water): more than 300 mg/ml

CCCC[N+](C)(C)CCCCC1C(=O)[O][Pt]2([NH][C@H]3CC(OC)C(OC)C[C@H]3[NH]2)[O]C1=O (stereo partly drawn) [Compound 65]
LD50 vALUE (normal mice): 0.615 mmol/kg | IC50 (Lung cancer A549; Table 2, formula II compounds): 16 µM

CC1CCN(CCCCC2C(=O)[O][Pt]3([NH]C4CCCCC4[NH]3)[O]C2=O)CC1 (stereo not drawn) [Compound 37]
LD50 (normal mice): 0.825 mmol/kg | IC50 (Lung cancer A549; Table 1, formula I compounds): 9 µM

CC1CC(Cl)C(C)N1CCCCC1C(=O)[O][Pt]2([NH]C3CCCCC3[NH]2)[O]C1=O (stereo not drawn) [Compound 41]
LD50 (normal mice): 0.675 mmol/kg | IC50 (Lung cancer A549; Table 1, formula I compounds): 13 µM

2-(4-diethylaminobutyl)-malonate•cis-(1, 2-trans-cyclopropanediamine) platinum (II) phosphate [Compound 16]
IC50 (Lung cancer H292): 5 µM | IC50 (colon cancer SW480): 13 µM | IC50 (Testis cell ST): 10 µM | IC50 (gastric cancer MGC803): 4 µM

CCCC[NH][Pt]1([NH]CCCC)[O]C(=O)C(CCCC[N+](CC)(CC)CC)C(=O)[O]1 [Compound 67]
LD50 vALUE (normal mice): 0.802 mmol/kg | IC50 (Lung cancer A549; Table 2, formula II compounds): 27 µM

CN(CCCCC1C(=O)[O][Pt]([NH2])([NH2])[O]C1=O)Cc1ccc(Cl)cc1F [Compound 59]
LD50 (normal mice): 0.598 mmol/kg | IC50 (Lung cancer A549; Table 1, formula I compounds): 68 µM

CN(CCCCC1C(=O)[O][Pt]2([NH]C3CCCCC3[NH]2)[O]C1=O)Cc1ccccc1 (stereo not drawn) [Compound 57]
LD50 (normal mice): 0.613 mmol/kg

CN(C)CCCCC1C(=O)[O][Pt][O]C1=O.NCC1CCCCN1 [Compound 49]
LD50 (normal mice): 0.817 mmol/kg | IC50 (Lung cancer A549; Table 1, formula I compounds): 45 µM

CC1CC(C)[NH][Pt]2([NH]1)[O]C(=O)C(CCCCN(C)C)C(=O)[O]2 (stereo not drawn) [Compound 45]
LD50 (normal mice): 0.834 mmol/kg | IC50 (Lung cancer A549; Table 1, formula I compounds): 31 µM

CN(CCCCC1C(=O)[O][Pt]2([NH]C3CCCCC3[NH]2)[O]C1=O)C1CCCC1 (stereo not drawn) [Compound 43]
LD50 (normal mice): 0.841 mmol/kg | IC50 (Lung cancer A549; Table 1, formula I compounds): 5 µM

O=C1[O][Pt]2([NH]C3CCCCC3[NH]2)[O]C(=O)C1CCCCN1CCOCC1 (stereo not drawn) [Compound 51]
LD50 (normal mice): 0.654 mmol/kg | IC50 (Lung cancer A549; Table 1, formula I compounds): 26 µM

2-(2-diethylaminobutyl)-malonate•cis-1,2-(1,2-dihydroxymethyl)-ethylenediamine platinum (II) phosphate [Compound 20]
IC50 (Lung cancer H292): 5 µM | IC50 (Testis cell ST): 11 µM | IC50 (gastric cancer MGC803): 4 µM | IC50 (Esophagus cancer ECA109): 17 µM

CCCCN(C)CCCCC1C(=O)[O][Pt]2([NH][C@H]3CCCC[C@H]3[NH]2)[O]C1=O (stereo partly drawn) [Compound 60]
LD50 (normal mice): 0.875 mmol/kg | IC50 (Lung cancer A549; Table 1, formula I compounds): 9 µM

CN(CCCCC1C(=O)[O][Pt]2([NH]C3CCCCC3[NH]2)[O]C1=O)Cc1ccc(Cl)cc1 (stereo not drawn) [Compound 58]
LD50 (normal mice): 0.607 mmol/kg | IC50 (Lung cancer A549; Table 1, formula I compounds): 37 µM

CN(CCCCC1C(=O)[O][Pt]2([NH]C3CCCCC3[NH]2)[O]C1=O)C(C)(C)C (stereo not drawn) [Compound 34]
LD50 (normal mice): 0.905 mmol/kg

CCN(C)CC(CCC1C(=O)[O][Pt][O]C1=O)OC.N.N (stereo not drawn) [Compound 30]
LD50 (normal mice): 0.759 mmol/kg | IC50 (Lung cancer A549; Table 1, formula I compounds): 12 µM

CC1CCCN1CCCCC1C(=O)[O][Pt]2([NH]C3CCCCC3[NH]2)[O]C1=O (stereo not drawn) [Compound 38]
LD50 (normal mice): 0.818 mmol/kg | IC50 (Lung cancer A549; Table 1, formula I compounds): 6 µM

CCN(C)CC(O)CCC1C(=O)[O][Pt][O]C1=O.NC1CCCCC1N (stereo not drawn) [Compound 54]
LD50 (normal mice): 0.792 mmol/kg

CCN(CC)CCCCC1C(=O)[O][Pt]2([NH]CCC[NH]2)[O]C1=O.O=P(O)(O)O [Compound 18, 2-(4-diethylaminobutyl)-malonate•cis-(1,3-propanediamine) platinum (II) phosphate]
IC50 (Lung cancer H292): 8 µM | IC50 (colon cancer SW480): 14 µM | IC50 (Testis cell ST): 22 µM | IC50 (gastric cancer MGC803): 2 µM | solubility (Solubility in water): more than 300 mg/ml

CCN(CC)CCCCC1C(=O)[O][Pt]2([NH]CC[NH]2)[O]C1=O.Cc1ccc(S(=O)(=O)O)cc1 [Compound 17, 2-(4-diethylaminobutyl)-malonate•cis-(1,2-ethylenediamine) platinum (II) tosilate]
IC50 (Lung cancer H292): 4 µM | IC50 (colon cancer SW480): 7 µM | IC50 (Testis cell ST): 16 µM | IC50 (gastric cancer MGC803): 5 µM | solubility (Solubility in water): more than 300 mg/ml

CN(C)CCCCC1C(=O)[O][Pt][O]C1=O.NCC1CCN1 [Compound 47]
LD50 (normal mice): 0.815 mmol/kg | IC50 (Lung cancer A549; Table 1, formula I compounds): 23 µM

COC1CC(C)N(CCCCC2C(=O)[O][Pt][O]C2=O)C1C.NC1CCCCC1N (stereo not drawn) [Compound 39]
LD50 (normal mice): 0.711 mmol/kg | IC50 (Lung cancer A549; Table 1, formula I compounds): 6 µM

CCN(CC)CCCCC1C(=O)[O][Pt]([NH]C2CCCC2)([NH]C2CCCC2)[O]C1=O [Compound 55]
LD50 (normal mice): 0.852 mmol/kg | IC50 (Lung cancer A549; Table 1, formula I compounds): 61 µM

CCN(CC)CCCCC1C(=O)[O][Pt][O]C1=O.NC1CC(O)C(O)CC1N [Compound 40]
LD50 (normal mice): 0.683 mmol/kg | IC50 (Lung cancer A549; Table 1, formula I compounds): 21 µM

O=C1[O][Pt]2([NH]C3CCCCC3[NH]2)[O]C(=O)C1CCCCN(C1CCCC1)C1CCCC1 (stereo not drawn) [Compound 42]
LD50 (normal mice): 0.826 mmol/kg | IC50 (Lung cancer A549; Table 1, formula I compounds): 5 µM

CCN(CC)CCCCC1C(=O)[O][Pt]2([NH]CCCC[NH]2)[O]C1=O.O=P(O)(O)O [Compound 19, 2-(4-diethylaminobutyl)-malonate•cis-(1,4-butanediamine) platinum (II) phosphate]
IC50 (Lung cancer H292): 6 µM | IC50 (colon cancer SW480): 23 µM | IC50 (Testis cell ST): 13 µM | IC50 (gastric cancer MGC803): 5 µM | solubility (Solubility in water): more than 300 mg/ml

CCCN.CCN(CC)CCCCC1C(=O)[O][Pt][O]C1=O.NC1CC=NC1 [Compound 63]
LD50 (normal mice): 0.804 mmol/kg | IC50 (Lung cancer A549; Table 1, formula I compounds): 25 µM

CCN(CC)CCCCC1C(=O)[O][Pt]2([NH]C3CCC3[NH]2)[O]C1=O.O=C(O)CCC(=O)O (racemic) [Compound 15, 2-(4-diethylaminobutyl)-malonate•cis-(1,2-trans-cyclobutanediamine) platinum (II) succinate]
IC50 (Lung cancer H292): 10 µM | IC50 (colon cancer SW480): 18 µM | IC50 (gastric cancer MGC803): 3 µM

NC1CCCCC1N.O=C1[O][Pt][O]C(=O)C1CCC(Cl)CN1CCCCC1 (stereo not drawn) [Compound 36]
LD50 (normal mice): 0.713 mmol/kg | IC50 (Lung cancer A549; Table 1, formula I compounds): 7 µM

O=C1[O][Pt]2([NH]C3CCCCC3[NH]2)[O]C(=O)C1CCCCN1CC=CC1 (stereo not drawn) [Compound 35]
LD50 (normal mice): 0.762 mmol/kg | IC50 (Lung cancer A549; Table 1, formula I compounds): 4 µM

CCN(C)CC(CCC1C(=O)[O][Pt][O]C1=O)OC.NC1CCCCC1N (stereo not drawn) [Compound 31]
LD50 (normal mice): 0.732 mmol/kg | IC50 (Lung cancer A549; Table 1, formula I compounds): 5 µM
